In US20070015823A1, “Ambruticin VS compounds” (priority 2004, published 2007):
≈ marks a conversion by molar mass, not a printed value. Read-outs that look alike come from different tables or passages of the source.

Assays:
[1] = system: C. posadasii; experiment: microbe, parasite or virus in culture; type: cell-based, Coccidioides posadasii; details: for MIC: Coccidioides posadasii
[2] = system: Cryptococcus neoformans; experiment: Broth microdilution antifungal susceptibility, NCCLS M38-A; details: for MIC: Cryptococcus neoformans
[3] = system: Fusarium solani; experiment: as above; type: cell-based; details: strain 96-1, 50% growth inhibition, range = minimum and maximum of multiple assays
[4] = system: A. flavus ATCC 204304; experiment: as above; type: cell-based, Aspergillus flavus; details: minimal concentration inhibiting >95% growth, average of at least two assays (except I-l and I-x)
[5] = system: C. immitis; experiment: microbe, parasite or virus in culture; type: cell-based, Coccidioides immitis; details: for MIC: Coccidioides immitis
[6] = system: Blastomyces dermatitidis; experiment: Broth microdilution antifungal susceptibility, NCCLS M38-A; type: cell-based; details: for MIC: Blastomyces dermatitidis
[7] = system: S. apiospermum; experiment: as above; type: cell-based, Scedosporium apiospermum; details: 50% growth inhibition, range = minimum and maximum of multiple assays; for MIC: Scedosporium apiospermum
[8] = system: A. fumigatus ATCC 204305; experiment: as above; type: cell-based, Aspergillus fumigatus; details: minimal concentration inhibiting >95% growth, average of at least two assays (except I-l and I-x)
[9] = system: Candida parapsilosis; details: strain 92019; 95% growth inhibition
[10] = system: Candida krusei; details: strain 6258; 95% growth inhibition
[11] = system: Candida albicans
[12] = system: Histoplasma capsulatum; type: cell-based; details: 50% growth inhibition

Structure (SMILES): CC[C@H]1O[C@@H](C(C)C[C@H](C)/C=C/[C@H]2[C@@H](C)[C@@H]2/C=C/[C@@H]2O[C@H](CC(=O)O)CC(O)[C@H]2O)CC=C1C (stereo partly drawn) [Ambruticin S, (5S,6R)-5,6-dihydroxypoly-angioic acid, reference compound]
- MIC ([1]; read-out: MIC C. posadasii C735): 4 µg/mL (≈ 8.39 µM)
- MIC ([1]; read-out: MIC C. posadasii RMSCC 2127): 2 µg/mL (≈ 4.2 µM)
- MIC ([1]; read-out: MIC C. posadasii Silveria): 2 µg/mL (≈ 4.2 µM)
- MIC ([2]; read-out: MIC C. neoformans 97-14): 8 µg/mL (≈ 16.8 µM)
- MIC ([2]; read-out: MIC C. neoformans 11239): 4 µg/mL (≈ 8.39 µM)
- MIC ([2]; read-out: MIC C. neoformans 11240): 16 µg/mL (≈ 33.6 µM)
- MIC ([3]; Fusarium solani, read-out: MIC F. solani 96-1): > 32 µg/mL
- MIC ([4]; Aspergillus flavus, ATCC204304, read-out: MIC0 A. flavus ATCC 204304): 28.4 µg/mL (≈ 59.7 µM)
- MIC ([5]; read-out: MIC C. immitis RMS 2281): 2 µg/mL (≈ 4.2 µM)
- MIC ([5]; read-out: MIC C. immitis RS): 2 µg/mL (≈ 4.2 µM)
- MIC ([5]; read-out: MIC C. immitis S46): 4 µg/mL (≈ 8.39 µM)
- MIC ([6]; read-out: MIC0 Blastomyces dermatitidis R-35629): 0.125 µg/mL (≈ 0.262 µM)
- MIC ([6]; strain 04-2167, >95% growth inhibition, read-out: MIC0 Blastomyces dermatitidis 04-2167): 0.125 µg/mL (≈ 0.262 µM)
- MIC ([6]; strain 04-2508, >95% growth inhibition, read-out: MIC0 Blastomyces dermatitidis 04-2508): 0.25 µg/mL (≈ 0.524 µM)
- MIC ([6]; strain 04-2915, >95% growth inhibition, read-out: MIC0 Blastomyces dermatitidis 04-2915): 1 µg/mL (≈ 2.1 µM)
- MIC ([6]; strain 05-106, >95% growth inhibition, read-out: MIC0 Blastomyces dermatitidis 05-106): 0.5 µg/mL (≈ 1.05 µM)
- MIC ([6]; strain 05-186, >95% growth inhibition, read-out: MIC0 Blastomyces dermatitidis 05-186): 0.125 µg/mL (≈ 0.262 µM)
- MIC ([6]; strain 05-1391, >95% growth inhibition, read-out: MIC0 Blastomyces dermatitidis 05-1391): 0.06 µg/mL (≈ 0.126 µM)
- MIC ([6]; strain 05-1707, >95% growth inhibition, read-out: MIC0 Blastomyces dermatitidis 05-1707): ≤ 0.015 µg/mL
- MIC ([6]; strain 05-1820, >95% growth inhibition, read-out: MIC0 Blastomyces dermatitidis 05-1820): 0.125 µg/mL (≈ 0.262 µM)
- MIC ([6]; strain 05-1829, >95% growth inhibition, read-out: MIC0 Blastomyces dermatitidis 05-1829): 0.25 µg/mL (≈ 0.524 µM)
- MIC ([6]; strain 05-2020, >95% growth inhibition, read-out: MIC0 Blastomyces dermatitidis 05-2020): 0.06 µg/mL (≈ 0.126 µM)
- MIC ([6]; strain R-3529, >95% growth inhibition, read-out: MIC0 Blastomyces dermatitidis R-3529): 0.06 µg/mL (≈ 0.126 µM)
- MIC ([7]; strain 94-54, read-out: MIC S. apiospermum 94-54): > 32 µg/mL
- MIC ([7]; strain 98-38, read-out: MIC S. apiospermum 98-38): > 32 µg/mL
- MIC ([7]; strain 98-89, read-out: MIC S. apiospermum 98-89): 4 µg/mL (≈ 8.39 µM)
- MIC ([8]; Aspergillus fumigatus, ATCC204305, read-out: MIC0 A. fumigatus ATCC 204305): 29.3 µg/mL (≈ 61.5 µM)

Structure (SMILES): C[C@@H]1[C@H](O)[C@@H](C)/C=C/C=C/C=C/C=C/C=C/C=C/C=C/[C@H](O[C@@H]2O[C@H](C)[C@@H](O)[C@H](N)[C@@H]2O)C[C@@H]2O[C@](O)(C[C@@H](O)C[C@@H](O)[C@H](O)CC[C@@H](O)C[C@@H](O)CC(=O)O[C@H]1C)C[C@H](O)[C@H]2C(=O)O [Amphotericin B, reference compound]
- MIC C. posadasii C735 ([1]; strain C735, 80% growth inhibition): 1 µg/mL (≈ 1.08 µM)
- MIC C. posadasii RMSCC 2127 ([1]; strain RMSCC 2127, 80% growth inhibition): 1 µg/mL (≈ 1.08 µM)
- MIC C. posadasii Silveria ([1]; strain Silveria, 80% growth inhibition): 1 µg/mL (≈ 1.08 µM)
- MIC C. neoformans 97-14 ([2]; strain 97-14, 50% growth inhibition, range = minimum and maximum of multiple assays): 0.5 to 2 µg/mL
- MIC C. neoformans 11239 ([2]; strain 11239, 50% growth inhibition, range = minimum and maximum of multiple assays): 0.5 to 1 µg/mL
- MIC C. neoformans 11240 ([2]; strain 11240, 50% growth inhibition, range = minimum and maximum of multiple assays): 0.5 to 1 µg/mL
- MIC0 C. parapsilosis 92019 [9]: 1 µg/mL
- MIC F. solani 96-1 [3]: 1 to 2 µg/mL
- MIC0 A. flavus ATCC 204304 [4]: 1.67 µg/mL
- MIC0 C. krusei 6258 [10]: 1 µg/mL
- MIC C. immitis RMS 2281 ([5]; strain RMS 2281, 80% growth inhibition): 1 µg/mL (≈ 1.08 µM)
- MIC C. immitis RS ([5]; strain RS, 80% growth inhibition): 1 µg/mL (≈ 1.08 µM)
- MIC C. immitis S46 ([5]; strain S46, 80% growth inhibition): 1 µg/mL (≈ 1.08 µM)
- MIC B. dermatitidis Gu ([6]; strain Gu, 50% growth inhibition): 2 µg/mL (≈ 2.16 µM)
- MIC B. dermatitidis Kr ([6]; strain Kr, 50% growth inhibition): 1 µg/mL (≈ 1.08 µM)
- MIC B. dermatitidis V ([6]; strain V, 50% growth inhibition): 1 µg/mL (≈ 1.08 µM)
- MIC C. albicans 24433 ([11]; strain 24433, 50% growth inhibition, range = minimum and maximum of multiple assays): 2 to 4 µg/mL
- MIC C. albicans 90028 ([11]; strain 90028, 50% growth inhibition, range = minimum and maximum of multiple assays): 2 to 4 µg/mL
- MIC0 C. albicans 90028 ([11]; strain 90028, 95% growth inhibition): 1 µg/mL
- MIC H. capsulatum G217B ([12]; strain G217B): 0.19 µg/mL (≈ 0.206 µM)
- MIC H. capsulatum GS20 ([12]; strain GS20): 0.19 µg/mL (≈ 0.206 µM)
- MIC S. apiospermum 94-54 ([7]; strain 94-54): >32 µg/mL
- MIC S. apiospermum 98-38 ([7]; strain 98-38): 4 µg/mL (≈ 4.33 µM)
- MIC S. apiospermum 98-89 ([7]; strain 98-89): 8 µg/mL (≈ 8.66 µM)
- MIC0 A. fumigatus ATCC 204305 [8]: 1.53 µg/mL
